Legend:
[1] = target: T1, human IL-17RA and IL-17A proteins (Homo sapiens, UniProt Q16552); assay: Competitive ELISA: blocking of binding between human IL-17RA and IL-17A; details: coated IL-17A, IL-17RA 5 nM
T1 sequence (Q16552 24-155): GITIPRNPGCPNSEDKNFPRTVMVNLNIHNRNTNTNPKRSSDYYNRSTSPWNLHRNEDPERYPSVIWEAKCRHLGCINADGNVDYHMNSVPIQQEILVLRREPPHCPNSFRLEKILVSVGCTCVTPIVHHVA
Protocol: Test example 1 Assay for competitive binding effect between compounds of the present invention and human IL-17 receptor for ligand
1. Experimental objective: to quantitatively determine the blocking effect of the compound on the binding between human IL-17RA and IL-17A proteins using competitive ELISA under in vitro conditions. 2. Experimental instruments and reagents: 2.1 Instruments:
2.2 Reagents: 3. Experimental method: IL-17A at 0.0625 µg/mL was coated in a 96-well plate at 4°C overnight at 100 µL per well. The plate was washed with PBST (300 µL/well x 4), and then blocked at 24°C for 2 h by adding 300 µL of ELISA Blocker blocking buffer to each well. The plate was further washed under the same conditions. 80 µL of PBS solution containing 1% BSA and 10 µL of 10× test compound solution were added to each well and mixed uniformly, and then the mixture was incubated at room temperature for 1 hour. After that, 10 µL of IL-17RA solution was added to a final concentration of 5 nM and mixed uniformly, and then the mixture was incubated at 24°C for 1 h. The corresponding concentration and volume of DMSO solution without compounds was added to positive control wells, and 1% BSA solution without IL-17RA was added to negative control wells.
After the plate was washed four times, 100 µL of the anti-Fc tag HRP-conjugated antibody was added, and the mixture was incubated at 37°C for 1 h. After the plate was washed four times, 100 µL of TMB substrate was added to each well, and the mixture was incubated at 37°C in the dark. After colour development was completed, the reaction was terminated by adding 100 µL of stop solution to each well, and the absorbance was measured at wavelengths of 450 nm and 570 nm using a microplate reader.
• 1) Inhibition rate (%): The original data (OD450-OD570) was calculated according to the following formula to obtain the inhibition rate. Inhibition rate% = [(average value of positive control wells - value of sample wells)/(average value of positive control wells - average value of negative control wells)] × 100, where the positive control wells are wells without compounds, and the negative control wells are wells without IL-17RA protein solution. • 2) Curve fitting: Log(inhibitor) vs. response -- Variable slope (four parameters) in GraphPad Prism 8 was used for fitting equation analysis of the compound concentration and the corresponding inhibition rate, and the curve was fitted to obtain the IC50 value of the compound. The fitting calculation equation was Y = Bottom + (Top - Bottom) / (1 + 10^((LogIC50 - X) * HillSlope)).

[2] = system: Groα secretion by HT-29 cells; assay: Inhibition of Groα secretion by HT-29 cells stimulated with IL-17A (ELISA); assay type: cell-based, Human; details: Homo sapiens, IL-17A 30 ng/ml, Groα in supernatant
Protocol: Test example 2 Assay for inhibitory effect of compounds of the present invention against Groα secretion by HT-29 cells
Experimental objective: to measure the inhibitory effect of the compounds against Groα secretion by HT-29 cells, thereby evaluating the inhibition of the compounds on IL-17A pathway.
Experimental method: A cell suspension at 50,000 cells/ml was prepared, and 200 µl of the cell suspension was added to each well of a 96-well plate, i.e., 10,000 cells/well. The plate was cultured overnight. In the 96-well V-bottom plate, 5 mM compound solution was serially diluted 3-fold using DMSO, and the compound from each well was diluted 100-fold using a complete culture medium. IL-17A protein (R&D, #BT7955-025/CF) with a stock concentration of 100 µg/ml was diluted 333.33-fold using a complete culture medium. The compound and IL-17A were mixed at a volume ratio of 1:1 and incubated at 37°C for 30 minutes. 50 µl of a mixture of the compound and IL-17A was added to cell wells, and the final concentration of IL-17A protein was 30 ng/ml.
The mixture was incubated in a 37°C, 5% CO2 cell culture incubator for 48 hours. The concentration of Groα in the supernatant was determined by ELISA method using Human Groα Valukin Elisa kit (Biotechne, # VAL139), and the absorbance intensity at 450 nm was measured using a microplate reader (PE, EnVision2105). Data were analysed using GraphPad Prism 8.3.0.
Experimental data processing method: Data were analysed using GraphPad Prism 8.3.0.
Inhibition rate% = [(average value of positive control wells - value of sample wells)/(average value of positive control wells - average value of negative control wells)] × 100%, where the sample wells are wells containing cells plus compounds at different concentration gradients, the positive control wells are wells containing cells plus IL-17A, and the negative control wells are wells containing culture medium plus IL-17A.
Curve fitting: The IC50 value was obtained by curve fitting based on the inhibition rate (%) at each concentration using the log(inhibitor) vs. responseVariable slope (four parameters) in GraphPad Prism 6.0, and the calculation equation was Y = Bottom + (Top-Bottom)/(1+10^((LogIC50-X)*HillSlope)).

[3] = Pharmacokinetic assay in Wistar rats, oral; details: rat, 30 mg/kg
Protocol: Experimental objective: to study the pharmacokinetic behaviours of the compounds of the present invention in the body (plasma) of Wistar rats as test animals after oral administration at a dose of 30 mg/kg. • 2. Experimental scheme • 2.1 Test drugs: the examples of the present invention, prepared in house. • 2.2 Test animals: Wistar rats (female, 3 rats per group), from Beijing Vital River Laboratory Animal Technology Co., Ltd., with the animal production license no.
Solutol HS15 was melted in a water bath at 50-60°C, and then 50 mL of the melted Solutol HS15 was added to 450 mL of ultrapure water. The mixture was stirred and sonicated to obtain 500 mL of 10% Solutol HS15 solution. The compound was weighed, and according to the total administration volume, 30% PEG solution was first added. The mixture was shaken uniformly and sonicated until a clear solution was obtained. Subsequently, 70% (10% Solutol) in water was added, resulting in a colourless and clear solution with a concentration of 3.0 mg/mL.
2.4 Administration scheme: After overnight fasting, 3 female Wistar rats per group were administered orally (PO) at a dose of 30 mg/kg with an administration volume of 10 mL/kg.
• 1) To 50 uL of plasma sample was added 250 uL of acetonitrile for precipitation, and the mixture was mixed and then centrifuged at 4°C at 4000 rpm for 20 minutes. • 2) The treated supernatant solution was taken and subjected to LC/MS/MS to analyse the concentration of the test compounds. LC/MS/MS analysis instrument: AB Sciex API-4000 Qtrap-Shimadzu Controller-CBM20A.
• Chromatographic column: Waters Xbridge C18 3.5 um 2.1*50 mm • Mobile phase: solution A: 0.1% formic acid in water, and solution B: 0.1% formic acid in acetonitrile • Flow rate: 0.6 mL/min • Elution time: 0-3.5 minutes, with eluents as follows:

SMILES | IC50 [1] | IC50 ([2]; 48 hours) | also measured
C[C@H]1CC[C@H]([C@H](NC(=O)C2(F)CC2)C(=O)Nc2ncc([C@@H](CN3CCO[C@H](CF)C3)N3CC(F)(F)CNC3=O)s2)CC1 [Example 696, N-((S)-2-((5-((R)-1-(5,5-difluoro-2-oxotetrahydropyrimidin-1(2H)-yl)-2-((S)-2-(fluoromethyl)morpholino)ethyl)thiazol-2-yl)amino)-1-((1r,4S)-4-methylcyclohexyl)-2-oxoethyl)-1-fluorocyclopropane-1-carboxamide] | 5 nM | 2 nM | –
C[C@H]1CN(C[C@H](c2cnc(NC(=O)[C@@H](NC(=O)C3(F)CC3)[C@H]3CC[C@H](C)CC3)s2)N2CC(F)(F)CNC2=O)C[C@H](C)O1 [Example 730] | 6.7 nM | – | –
C[C@@H]1CN(C[C@H](c2cnc(NC(=O)[C@@H](NC(=O)C(F)(F)C3CC3)[C@H]3CC[C@H](C)CC3)s2)N2CC(F)(F)CNC2=O)C[C@H](C)O1 [Example 725] | 5.6 nM | 2.5 nM | –
C[C@H]1CC[C@H]([C@H](NC(=O)C2(F)CC2)C(=O)Nc2ncc([C@@H](CN3CCOC4(CC4)C3)N3CC(F)(F)CNC3=O)s2)CC1 [Example 721] | 4 nM | – | –
[2H]C([2H])([2H])O[C@@H]1CCN(C[C@H](c2cnc(NC(=O)[C@@H](NC(=O)C3(F)CC3)[C@H]3CC[C@H](C)CC3)s2)N2CC(F)(F)CNC2=O)C[C@@H]1F [Example 781] | 5 nM | 10 nM | –
COCC(c1cnc(NC(=O)C(NC(=O)OC2CC2)C2CCC(C)CC2)s1)N1CC(C(F)(F)F)NC1=O (centres unmarked) [Example 522] | 6.2 nM | – | –
C[C@@H]1CN(C[C@H](c2cnc(NC(=O)[C@@H](NC(=O)C3(F)CC3)[C@H]3CC[C@H](C)CC3)s2)N2CC(F)(F)CNC2=O)C[C@@H](C)O1 [Example 726] | 4.8 nM | 1.8 nM | –
C[C@H]1CC[C@H]([C@H](NC(=O)C2(F)CC2)C(=O)Nc2ncc([C@@H](CN3CCO[C@@H](CF)C3)N3CC(F)(F)CNC3=O)s2)CC1 [Example 703] | 7.5 nM | 7 nM | –
CCc1nonc1C(=O)NC(C(=O)Nc1ncc(C(COC)N2CC(C(F)(F)F)NC2=O)s1)C1CCC(C)CC1 (centres unmarked) [Example 521] | 1.3 nM | 2 nM | –
C[C@H]1CN(C[C@H](c2cnc(NC(=O)[C@@H](NC(=O)C3(F)CC3)[C@H]3CC[C@H](C)CC3)s2)N2CC(F)(F)CNC2=O)[C@@H](C)CO1 [Example 734] | 2.9 nM | 2 nM | –
C[C@H]1CN(C[C@H](c2cnc(NC(=O)[C@@H](NC(=O)C3(F)CC3)[C@H]3CC[C@H](C)CC3)s2)N2CC(F)(F)CNC2=O)CCO1 [Example 1013] | 9 nM | 9 nM | –
CCc1nonc1C(=O)N[C@H](C(=O)Nc1ncc([C@@H](C2CCOCC2)n2cc(Cl)ccc2=O)s1)[C@H]1CC[C@H](C)CC1 [Example 532] | 7.9 nM | 7.9 nM | –
C[C@H]1CC[C@H]([C@H](NC(=O)C2(F)CC2)C(=O)Nc2ncc([C@@H](CN3CCC(F)CC3)N3CC(F)(F)CNC3=O)s2)CC1 [Example 760] | 7 nM | 5.7 nM | –
CC1CCC([C@H](NC(=O)C2(F)CC2)C(=O)Nc2ncc(C(CN3CCOCC3)N3CC(F)(F)CNC3=O)s2)CC1 (some centres unmarked) [Example 601] | 4.1 nM | 7.5 nM | –
C[C@@H]1CN(C[C@H](c2cnc(NC(=O)[C@@H](NC(=O)C(F)(F)C3CC3)[C@H]3CC[C@H](C)CC3)s2)N2CC(F)(F)CNC2=O)C[C@@H](C)O1 [Example 727] | 3.3 nM | 1.2 nM | –
C[C@H]1CC[C@H]([C@H](NC(=O)C(F)(F)C2CC2)C(=O)Nc2ncc([C@@H](CN3CCO[C@H](CF)C3)N3CC(F)(F)CNC3=O)s2)CC1 [Example 700] | 3.4 nM | 2.6 nM | –
[2H]C1([2H])NC(=O)N([C@H](COC)c2cnc(NC(=O)[C@@H](NC(=O)C3(F)CC3)[C@H]3CC[C@H](C)CC3)s2)C([2H])([2H])C1(F)F [Example 688, N-((S)-2-((5-((R)-1-(5,5-difluoro-2-carbonyltetrahydropyrimidin-1(2H)-yl-4,4,6,6-d4)-2-methoxyethyl)thiazol-2-yl)amino)-1-((1r,4S)-4-methylcyclohexyl)-2-carbonylethyl)-1-fluorocyclopropane-1-carboxamide] | 5.1 nM | – | –
C[C@H]1CC[C@H]([C@H](NC(=O)OC2CC2)C(=O)Nc2ncc([C@@H](CC3CC3)N3CC(F)(F)CNC3=O)s2)CC1 [Example 524] | 3.6 nM | 9.3 nM | –
COC[C@H](c1cnc(NC(=O)[C@@H](NC(=O)C2(F)CC2)[C@H]2CC[C@H](C)CC2)s1)N1CC(F)(F)CNC1=O [Example 592] | 6.4 nM | – | –
CC[C@@H]1CN(C[C@H](c2cnc(NC(=O)[C@@H](NC(=O)C3(F)CC3)[C@H]3CC[C@H](C)CC3)s2)N2CC(F)(F)CNC2=O)CCO1 [Example 704] | 4.9 nM | 6.5 nM | –
COC[C@H](c1cnc(NC(=O)[C@@H](NC(=O)c2nonc2C)[C@H]2CC[C@H](C)CC2)s1)n1cc(Cl)ccc1=O [Example 569] | 5 nM | – | –
[2H]C1([2H])NC(=O)N([C@H](COC)c2cnc(NC(=O)[C@@H](NC(=O)OC3CC3)[C@H]3CC[C@H](C)CC3)s2)C([2H])([2H])C1(F)F [Example 559] | 4.3 nM | – | AUC(0-t) ([3]; plasma): 12700 ng·h/mL; Cmax ([3]; plasma): 2190 ng/mL; Tmax ([3]; plasma): 2 h; half-life ([3]; plasma): 162 min
[2H]C([2H])([2H])C([2H])([2H])n1nccc1C(=O)NC(C(=O)Nc1ncc(C(CN2CC(C)OCC2C)N2CC(F)(F)CCC2=O)s1)C1CCC(C)CC1 [Example 864, N-((S)-2-((5-((R)-1-(5,5-difluoro-2-oxopiperidin-1-yl)-2-((2R,5S)-2,5-dimethylmorpholino)ethyl)thiazol-2-yl)amino)-1-((1r,4S)-4-methylcyclohexyl)-2-oxoethyl)-1-(ethyl-d5)-1H-pyrazole-5-carboxamide] | – | – | IC50 ([2]; HT-29, 48 h): 3 nM; AUC(0-t) ([3]; in vivo): 15700 ng·h/mL; Cmax ([3]; in vivo): 1600 ng/mL; Tmax ([3]; in vivo): 4 h; half-life ([3]; in vivo): 222 min
[2H]C([2H])([2H])C([2H])([2H])n1nccc1C(=O)N[C@H](C(=O)Nc1ncc([C@@H](CN2CCOC[C@@H]2C)N2CC(F)(F)CCC2=O)s1)[C@H]1CC[C@H](C)CC1 [Example 816] | – | – | IC50 ([2]; HT-29, 48 h): 4.6 nM; AUC(0-t) ([3]; in vivo): 28400 ng·h/mL; Cmax ([3]; in vivo): 2540 ng/mL; Tmax ([3]; in vivo): 4 h; half-life ([3]; in vivo): 228 min
[2H]C([2H])([2H])C([2H])([2H])n1nccc1C(=O)N[C@H](C(=O)Nc1ncc([C@@H](CN2CCC(C(F)F)CC2)N2CC(F)(F)CCC2=O)s1)[C@H]1CC[C@H](C)CC1 [Example 938] | – | – | IC50 ([2]; HT-29, 48 h): 4.4 nM; AUC(0-t) ([3]; in vivo): 12500 ng·h/mL; Cmax ([3]; in vivo): 1240 ng/mL; Tmax ([3]; in vivo): 4 h; half-life ([3]; in vivo): 360 min
